Source: patent US20070166777A1, “Methods for detecting lp-pla2 activity and inhibition of lp-pla2 activity” (priority 2004, published 2007)

Test: Pharmacokinetics in clinical studies, plasma level
Details: human subjects, administered in vivo in clinical studies

`CCN(CC)CCN(Cc1ccc(-c2ccc(C(F)(F)F)cc2)cc1)C(=O)Cn1c(SCc2ccc(F)cc2)nc(=O)c2c1CCC2` [Formula II, -(N-(2-(Diethylamino)ethyl)-N-(4-(4-trifluoromethylphenyl)benzyl)-aminocarbonylmethyl)-2-(4-fluorobenzyl)thio-5,6-trimethylenepyrimidin-4-one bitartrate] gave a peak plasma level of 90 ng/mL.
